In ChEMBL document CHEMBL5034019, “Discovery of the Next-Generation Pan-TRK Kinase Inhibitors for the Treatment of Cancer” (J Med Chem, 2021):
Values belong to the compound of their own block, whether it stands above or below them. The source made the active and inactive calls. The calls are words filed in the database; no cut-off is given here.

Assays:
[1] = tested on: Proto-oncogene tyrosine-protein kinase Src (Homo sapiens), P12931 [T341M]; assay: Inhibition of recombinant full-length human Src T341M mutant assessed as residual activity at 0.5 uM using GGEEEEYFELVKKKK as substrate measured after 40 mins in presence of [gamma33P]ATP by scintillation counting method relative to control
[2] = AUC (0 to t) in female Sprague-Dawley rat at 10 mg/kg, po measured up to 24 hrs by LC-MS/MS analysis; assay type: ADME, organism-based; design: route oral, dose 10 mg/kg, time <=24; conditions: in vivo
[3] = AUC (0 to t) in female Sprague-Dawley rat at 2 mg/kg, iv measured up to 24 hrs by LC-MS/MS analysis; assay type: ADME, organism-based; design: route intravenous, dose 2 mg/kg, time <=24; conditions: in vivo
[4] = Cmax in male Sprague-Dawley rat at 10 mg/kg, po measured up to 24 hrs by LC-MS/MS analysis; assay type: ADME, organism-based; design: route oral, dose 10 mg/kg, time <=24; conditions: in vivo
[5] = tested on: Platelet-derived growth factor receptor alpha (Homo sapiens), P16234 [V561D]; assay: Inhibition of human PDGFRalpha V561D mutant (550 to end residues) assessed as residual activity at 0.5 uM using poly(Glu, Tyr) 4:1 as substrate measured after 40 mins in presence of [gamma33P]ATP by scintillation counting based radiometry assay relative to control
Chain of Platelet-derived growth factor receptor alpha (Homo sapiens), P16234 [V561D] (P16234 whole entry V561D): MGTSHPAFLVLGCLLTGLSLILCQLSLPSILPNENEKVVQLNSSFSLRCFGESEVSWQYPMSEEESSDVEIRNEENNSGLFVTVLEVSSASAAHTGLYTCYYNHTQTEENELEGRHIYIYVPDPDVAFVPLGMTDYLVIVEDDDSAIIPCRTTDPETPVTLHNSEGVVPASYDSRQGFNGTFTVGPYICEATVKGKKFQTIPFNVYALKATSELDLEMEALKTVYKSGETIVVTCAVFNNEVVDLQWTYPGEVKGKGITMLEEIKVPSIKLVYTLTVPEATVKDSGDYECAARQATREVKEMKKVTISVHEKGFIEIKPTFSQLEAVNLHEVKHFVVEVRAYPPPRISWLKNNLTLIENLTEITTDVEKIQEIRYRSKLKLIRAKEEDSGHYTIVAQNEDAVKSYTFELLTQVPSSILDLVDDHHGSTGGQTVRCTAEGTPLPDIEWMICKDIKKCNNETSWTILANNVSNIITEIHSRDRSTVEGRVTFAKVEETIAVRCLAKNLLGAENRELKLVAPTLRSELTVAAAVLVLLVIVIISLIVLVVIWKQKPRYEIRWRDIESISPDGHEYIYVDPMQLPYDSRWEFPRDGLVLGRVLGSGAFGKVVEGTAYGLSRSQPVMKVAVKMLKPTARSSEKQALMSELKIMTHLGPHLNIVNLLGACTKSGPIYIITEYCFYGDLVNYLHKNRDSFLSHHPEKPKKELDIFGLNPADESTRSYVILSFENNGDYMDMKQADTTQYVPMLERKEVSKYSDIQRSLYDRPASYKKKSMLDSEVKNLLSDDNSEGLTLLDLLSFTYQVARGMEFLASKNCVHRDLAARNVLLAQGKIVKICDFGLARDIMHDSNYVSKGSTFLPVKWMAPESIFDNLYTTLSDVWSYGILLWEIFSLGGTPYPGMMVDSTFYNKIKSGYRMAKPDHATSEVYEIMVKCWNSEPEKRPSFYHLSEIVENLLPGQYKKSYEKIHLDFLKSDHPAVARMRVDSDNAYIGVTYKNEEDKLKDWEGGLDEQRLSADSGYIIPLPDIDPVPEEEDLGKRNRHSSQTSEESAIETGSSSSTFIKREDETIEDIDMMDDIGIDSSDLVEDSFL

[6] = molecular target: Voltage-gated inwardly rectifying potassium channel KCNH2 (Homo sapiens, UniProt Q12809); assay: Inhibition of human ERG
[7] = molecular target: Serine/threonine-protein kinase B-raf (Homo sapiens) (UniProt P15056); assay: Inhibition of recombinant […] human B-Raf (416 to end residues) assessed as residual activity at 0.5 uM using myelin basic protein substrate incubated for 40 mins in presence of [gamma-33ATP] by scintillation counting based radiometry assay relative to control
Chain of Serine/threonine-protein kinase B-raf (Homo sapiens) (P15056 whole entry): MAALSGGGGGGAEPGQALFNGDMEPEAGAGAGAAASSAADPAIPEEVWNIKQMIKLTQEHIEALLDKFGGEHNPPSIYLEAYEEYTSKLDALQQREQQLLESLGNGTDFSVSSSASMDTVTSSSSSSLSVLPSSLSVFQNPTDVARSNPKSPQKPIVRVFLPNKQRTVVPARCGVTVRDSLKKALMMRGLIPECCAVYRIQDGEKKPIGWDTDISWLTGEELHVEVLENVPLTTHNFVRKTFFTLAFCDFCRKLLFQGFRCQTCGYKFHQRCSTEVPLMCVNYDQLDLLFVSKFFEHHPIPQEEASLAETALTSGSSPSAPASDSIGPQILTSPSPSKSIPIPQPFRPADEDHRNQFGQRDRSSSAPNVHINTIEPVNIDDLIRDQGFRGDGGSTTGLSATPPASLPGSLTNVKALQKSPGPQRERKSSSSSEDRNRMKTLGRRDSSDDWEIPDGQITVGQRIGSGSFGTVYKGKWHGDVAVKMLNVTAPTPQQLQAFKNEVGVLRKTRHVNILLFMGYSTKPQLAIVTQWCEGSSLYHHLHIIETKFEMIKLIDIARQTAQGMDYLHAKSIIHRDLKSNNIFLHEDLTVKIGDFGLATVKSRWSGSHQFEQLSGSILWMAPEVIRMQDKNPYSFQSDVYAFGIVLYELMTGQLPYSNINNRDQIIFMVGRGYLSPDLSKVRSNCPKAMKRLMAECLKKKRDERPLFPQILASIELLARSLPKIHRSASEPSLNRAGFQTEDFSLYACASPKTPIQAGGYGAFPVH

[8] = tested on: Mast/stem cell growth factor receptor Kit (Homo sapiens), P10721 [V654A]; assay: Inhibition of recombinant human C-Kit V654A mutant (544 to end residues) assessed as residual activity at 0.5 uM poly(Glu, Tyr) 4:1 as substrate incubated 40 mins in presence of [gamma-33ATP] by scintillation counting based radiometry assay relative to control
BaF3 = assay: Antitumor activity against mouse BaF3 cells transfected with LMNA-NTRK1 xenografted in mouse assessed as tumor growth inhibition at 5 to 20 mg/kg, po administered once daily for 21 days and measured twice weekly; conditions: dose 5-20 mg/kg, time 21.0 day
[9] = AUC (0 to t) in male Sprague-Dawley rat at 10 mg/kg, po measured up to 24 hrs by LC-MS/MS analysis; assay type: ADME, organism-based; design: route oral, dose 10 mg/kg, time <=24; conditions: in vivo
[10] = Clearance in female Sprague-Dawley rat at 2 mg/kg, iv measured up to 24 hrs by LC/MS/MS analysis; assay type: ADME, organism-based; conditions: in vivo
[11] = tested on: Hepatocyte growth factor receptor (Homo sapiens), P08581 [Y1248C]; assay: Inhibition of recombinant human Met Y1248C mutant (974 to end residues) assessed as residual activity at 0.5 uM using KKKGQEEEYVFIE as substrate incubated for 40 mins in presence of [gamma-33P]-ATP by scintillation counting method relative to control
[12] = Volume of distribution in male Sprague-Dawley rat at 2 mg/kg, iv measured up to 24 hrs by LC-MS/MS analysis; assay type: ADME, organism-based; conditions: in vivo
[13] = tested on: Proto-oncogene tyrosine-protein kinase receptor Ret (Homo sapiens), P07949 [V804L]; assay: Inhibition of recombinant human Ret V804L mutant (658 to end residues) assessed as residual activity at 0.5 uM using KKKSPGEYVNIEFG as substrate incubated for 40 mins in presence of [gamma33P]ATP by scintillation counting based radiometry assay relative to control
Chain of Proto-oncogene tyrosine-protein kinase receptor Ret (Homo sapiens), P07949 [V804L] (P07949 whole entry V804L): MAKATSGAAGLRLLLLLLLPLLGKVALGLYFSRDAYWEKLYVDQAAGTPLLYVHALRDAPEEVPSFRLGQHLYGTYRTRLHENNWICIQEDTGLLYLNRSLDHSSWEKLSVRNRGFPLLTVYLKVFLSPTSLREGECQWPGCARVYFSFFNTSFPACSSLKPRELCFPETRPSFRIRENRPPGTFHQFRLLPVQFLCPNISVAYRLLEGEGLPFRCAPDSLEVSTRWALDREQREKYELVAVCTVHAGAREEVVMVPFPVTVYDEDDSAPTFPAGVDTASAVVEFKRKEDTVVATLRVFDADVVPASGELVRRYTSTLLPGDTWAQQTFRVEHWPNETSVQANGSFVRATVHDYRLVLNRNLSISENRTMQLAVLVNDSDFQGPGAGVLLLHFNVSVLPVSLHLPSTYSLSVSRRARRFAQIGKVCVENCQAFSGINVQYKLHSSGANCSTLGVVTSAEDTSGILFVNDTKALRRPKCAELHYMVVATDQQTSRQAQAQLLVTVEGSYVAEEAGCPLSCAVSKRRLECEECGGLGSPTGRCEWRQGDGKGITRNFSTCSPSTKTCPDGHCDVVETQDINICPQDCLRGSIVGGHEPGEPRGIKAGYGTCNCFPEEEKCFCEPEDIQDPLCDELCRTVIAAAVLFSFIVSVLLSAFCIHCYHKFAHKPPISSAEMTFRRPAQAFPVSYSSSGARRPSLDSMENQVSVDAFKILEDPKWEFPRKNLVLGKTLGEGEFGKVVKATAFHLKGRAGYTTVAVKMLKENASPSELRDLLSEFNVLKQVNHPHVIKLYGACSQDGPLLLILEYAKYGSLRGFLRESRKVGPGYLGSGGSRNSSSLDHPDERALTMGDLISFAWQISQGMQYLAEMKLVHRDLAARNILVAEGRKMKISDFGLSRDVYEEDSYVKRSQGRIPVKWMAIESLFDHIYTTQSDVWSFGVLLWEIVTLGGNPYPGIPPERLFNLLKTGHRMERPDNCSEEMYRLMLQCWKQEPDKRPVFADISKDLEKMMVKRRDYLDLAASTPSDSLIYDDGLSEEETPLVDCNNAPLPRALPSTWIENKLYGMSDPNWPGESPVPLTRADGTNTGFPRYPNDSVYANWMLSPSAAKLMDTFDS

[14] = Clearance in male Sprague-Dawley rat at 2 mg/kg, iv measured up to 24 hrs by LC/MS/MS analysis; assay type: ADME, organism-based; conditions: in vivo
[15] = molecular target: Epidermal growth factor receptor (Homo sapiens) (UniProt P00533); assay: Inhibition of recombinant human EGFR (696 to end residues) assessed as residual activity at 0.5 uM using poly(Glu, Tyr) 4:1 as substrate at 40 mins in presence of [gamma-33ATP] by scintillation counting based radiometry assay relative to control
Chain of Epidermal growth factor receptor (Homo sapiens) (P00533 whole entry, the tested form may be a part): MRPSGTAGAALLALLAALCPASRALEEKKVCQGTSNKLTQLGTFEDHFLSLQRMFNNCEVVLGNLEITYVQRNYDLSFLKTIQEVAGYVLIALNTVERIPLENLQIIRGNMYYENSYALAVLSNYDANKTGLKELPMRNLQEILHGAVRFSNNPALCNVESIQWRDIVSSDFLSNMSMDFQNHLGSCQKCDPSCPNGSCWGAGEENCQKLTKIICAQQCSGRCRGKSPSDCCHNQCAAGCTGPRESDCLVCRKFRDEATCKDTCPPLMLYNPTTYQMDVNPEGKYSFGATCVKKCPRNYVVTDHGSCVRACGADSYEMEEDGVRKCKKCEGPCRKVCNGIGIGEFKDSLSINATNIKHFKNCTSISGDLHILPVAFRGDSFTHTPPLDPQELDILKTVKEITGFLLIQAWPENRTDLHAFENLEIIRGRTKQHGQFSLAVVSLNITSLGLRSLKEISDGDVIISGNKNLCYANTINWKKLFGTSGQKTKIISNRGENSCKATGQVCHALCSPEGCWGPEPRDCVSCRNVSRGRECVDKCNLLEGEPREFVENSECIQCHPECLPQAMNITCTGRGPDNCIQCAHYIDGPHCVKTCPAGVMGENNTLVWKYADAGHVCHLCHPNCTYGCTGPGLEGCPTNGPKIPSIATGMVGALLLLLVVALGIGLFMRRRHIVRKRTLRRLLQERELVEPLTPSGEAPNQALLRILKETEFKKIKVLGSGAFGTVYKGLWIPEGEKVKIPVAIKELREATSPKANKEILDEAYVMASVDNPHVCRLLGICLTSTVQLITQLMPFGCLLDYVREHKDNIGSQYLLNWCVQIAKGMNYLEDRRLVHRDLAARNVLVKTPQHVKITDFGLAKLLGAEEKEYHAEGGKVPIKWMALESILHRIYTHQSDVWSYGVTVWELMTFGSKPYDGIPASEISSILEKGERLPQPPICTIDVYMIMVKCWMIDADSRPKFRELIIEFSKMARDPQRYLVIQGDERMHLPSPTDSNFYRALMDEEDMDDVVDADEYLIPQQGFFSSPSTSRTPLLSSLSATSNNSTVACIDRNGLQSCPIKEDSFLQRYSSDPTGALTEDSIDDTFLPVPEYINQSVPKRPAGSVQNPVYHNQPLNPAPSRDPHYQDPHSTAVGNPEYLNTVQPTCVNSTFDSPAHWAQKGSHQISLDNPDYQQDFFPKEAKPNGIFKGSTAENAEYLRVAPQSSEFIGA

[16] = molecular target: Receptor-interacting serine/threonine-protein kinase 2 (Homo sapiens) (UniProt O43353); assay: Inhibition of recombinant human RIPK2 (1 to 299 residues) assessed as residual activity at 0.5 uM using myelin basic protein as substrate incubated for 120 mins in presence of [gamma33P]ATP by scintillation counting based radiometry assay relative to control
Chain of Receptor-interacting serine/threonine-protein kinase 2 (Homo sapiens) (O43353 whole entry, the tested form may be a part): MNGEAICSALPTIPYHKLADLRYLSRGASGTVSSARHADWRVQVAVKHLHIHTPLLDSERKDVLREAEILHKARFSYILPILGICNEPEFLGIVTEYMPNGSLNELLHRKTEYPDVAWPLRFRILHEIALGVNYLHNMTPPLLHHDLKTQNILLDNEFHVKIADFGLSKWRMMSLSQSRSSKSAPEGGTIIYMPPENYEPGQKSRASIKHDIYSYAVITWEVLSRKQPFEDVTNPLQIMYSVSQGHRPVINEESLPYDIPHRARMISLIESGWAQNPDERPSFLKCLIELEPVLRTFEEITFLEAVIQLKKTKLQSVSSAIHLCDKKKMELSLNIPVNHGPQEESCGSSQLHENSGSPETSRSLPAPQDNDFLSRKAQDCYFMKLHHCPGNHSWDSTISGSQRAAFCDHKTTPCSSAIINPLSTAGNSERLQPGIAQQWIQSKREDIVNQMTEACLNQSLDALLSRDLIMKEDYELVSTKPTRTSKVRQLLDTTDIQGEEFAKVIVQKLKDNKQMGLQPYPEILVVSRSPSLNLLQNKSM

[17] = tested on: Proto-oncogene tyrosine-protein kinase receptor Ret (Homo sapiens), P07949 [V804M]; assay: Inhibition of recombinant human Ret V804M mutant (658 to end residues) assessed as residual activity at 0.5 uM using […] as substrate incubated for 40 mins in presence of [gamma33P]ATP by scintillation counting based radiometry assay relative to control
Chain of Proto-oncogene tyrosine-protein kinase receptor Ret (Homo sapiens), P07949 [V804M] (P07949 whole entry V804M): as the sequence (P07949 whole entry V804L) above, with L804M counted along it

[18] = Oral bioavailability in female Sprague-Dawley rat at 10 mg/kg measured up to 24 hrs by LC/MS/MS analysis; assay type: ADME, organism-based; conditions: in vivo
cells = conditions: Homo sapiens, MO-91
Description: Antiproliferative activity against TrK fused human MO-91 cells

[19] = Volume of distribution in Sprague-Dawley rat at 3 mg/kg measured up to 24 hrs by LC-MS/MS analysis; assay type: ADME, organism-based; conditions: in vivo
[20] = Toxicity in mouse xenografted with mouse BaF3 cells transfected with ETV6-NTRK3-G623R mutant assessed as unkempt appearance at 100 mg/kg, po administered once daily for 21 days and measured twice weekly; conditions: in vivo, 504 h
[21] = Toxicity in mouse xenografted with mouse BaF3 cells transfected with ETV6-NTRK3-G623R mutant assessed as weight loss at 100 mg/kg, po administered once daily for 21 days and measured twice weekly; conditions: in vivo, 504 h
[22] = Toxicity in mouse xenografted with mouse BaF3 cells transfected with ETV6-NTRK3 assessed as weight loss at 100 mg/kg, po administered once daily for 21 days and measured twice weekly; conditions: in vivo, 504 h
KM12 = assay: Antiproliferative activity against TrK fused human KM12 cells; assay type: functional, cell-based
[23] = Oral bioavailability in Sprague-Dawley rat at 10 mg/kg measured up to 24 hrs by LC/MS/MS analysis; assay type: ADME, organism-based; conditions: in vivo
[24] = Toxicity in mouse xenografted with mouse BaF3 cells transfected with LMNA-NTRK1-G595R mutant assessed as weight loss at 100 mg/kg, po administered once daily for 21 days and measured twice weekly; conditions: in vivo, 504 h
[25] = Toxicity in […] xenografted with mouse BaF3 cells transfected with ETV6-NTRK3 assessed as death at 100 mg/kg, po administered once daily for 21 days and measured twice weekly; assay type: organism-based; conditions: in vivo, 504 h, time 21 day

Activity [1]: 55%
AUC(0-t) at 24 h [2]: 31.7 µM·h
AUC(0-t) at 24 h [3]: 10.3 µM·h
Cmax [4]: 6.38 µM
Activity [5]: 103%
Activity [7]: 111%
Activity [8]: 105%
AUC(0-t) at 24 h [9]: 11.7 µM·h
clearance [10]: 8.19 mL/min/kg
Activity [11]: 85%
Vd [12]: 1.39 L/kg
Activity [13]: 59%
clearance [14]: 19.3 mL/min/kg
Activity [15]: 108%
Activity [16]: 93%
Activity [17]: 54%
bioavailability [18]: 61.9%
SMILES: O=C1NC2(CC2)COc2ncc(F)cc2[C@H]2COCCN2c2ccn3ncc1c3n2
IC50 [6]: 13 µM
Activity (BaF3): Active

SMILES: C[C@@H]1CCc2ncc(F)cc2[C@H]2CCCN2c2ccn3ncc(c3n2)C(=O)N1 [SELITRECTINIB]
IC50 (cells): ≤ 0.005 µM
Vd [19]: 0.5 L/kg
Activity [20]: Toxic
Activity [21]: Toxic
Activity [22]: Toxic
IC50 (KM12): ≤ 0.005 µM
bioavailability [23]: 74%
Activity [24]: Toxic
Activity [25]: Toxic
